Experimental findings from PubChem BioAssay (NCI) are described below.

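Exposure lasted 48 hours, with cells grown in 96-well plates and compounds tested at five concentrations. The concentration for full growth arrest is given as TGI.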

Test systems include SK-MEL-28 melanoma; COLO 205 colon; MDA-N; SNB-75 CNS; MDA-MB-231 breast; HT29 colon; OVCAR-3 ovarian; KM12 colon; MDA-MB-435; OVCAR-8 ovarian.
Common to all, as to assay: NCI tumour cell line growth inhibition, 48 h

Take `CCOC(=O)/C=C(/C(=O)OCC)n1ccc(=O)[nH]c1=O`: the TGI was determined as 18.4 µM in the experiment on SK-MEL-28 melanoma; 3.99 µM in the experiment with COLO 205 colon; 25.6 µM in the experiment with MDA-N; 29.2 µM with SNB-75 CNS; 26.4 µM in the experiment on MDA-MB-231 breast; 36 µM with HT29 colon. In addition, the TGI in the experiment with OVCAR-3 ovarian is 12.8 µM; with KM12 colon, 34.8 µM; in the experiment with MDA-MB-435, 24.4 µM; in the experiment with OVCAR-8 ovarian, 27.4 µM.
Turning to `C=CCc1cccc2cc(C(=O)Nc3nc(C45CC6CC(CC(C6)C4)C5)cs3)c(=O)oc12`, the TGI in the experiment on SK-MEL-28 melanoma was above 100 µM; with COLO 205 colon, 58.9 µM; in the experiment on MDA-N, above 100 µM; in the experiment on SNB-75 CNS, above 100 µM; with MDA-MB-231 breast, 62.1 µM; in the experiment with HT29 colon, above 100 µM. Also, the TGI in the experiment with OVCAR-3 ovarian was 67.6 µM; in the experiment on KM12 colon it was above 100 µM; with MDA-MB-435 it was above 100 µM; with OVCAR-8 ovarian it was above 100 µM.
As for `C=C1[C@H](OCC(C)C)[C@@H](OC(=O)C(C)CC)[C@@H](O)C(C)(C)/C=C/[C@H](C)C(=O)[C@@]2(O)C[C@H](C)[C@H](O)[C@@H]2[C@H]1OC(=O)C(C)CC` (stereo not given in full), the TGI is above 20 µM in the experiment with SK-MEL-28 melanoma; above 9.67 µM in the experiment with COLO 205 colon; above 20 µM in the experiment with MDA-N; above 18.7 µM with SNB-75 CNS; above 12.5 µM in the experiment with MDA-MB-231 breast; 9.87 µM in the experiment with HT29 colon. Further, the TGI was above 13.7 µM in the experiment with OVCAR-3 ovarian, above 13.6 µM in the experiment on KM12 colon, above 20 µM in the experiment on MDA-MB-435 and above 20 µM in the experiment on OVCAR-8 ovarian.
Consider `COC1=CCC2=C(CCN(C(=O)C3CCC3)C2Cc2ccc(OC)c(O)c2)C1` (stereo not given), for which the TGI in the experiment on SK-MEL-28 melanoma is above 100 µM; in the experiment on COLO 205 colon it was 32.1 µM; in the experiment on MDA-N, 9.04 µM; in the experiment on SNB-75 CNS, 35.9 µM; in the experiment with MDA-MB-231 breast it was above 100 µM; with HT29 colon, 43.8 µM. Also, the TGI with OVCAR-3 ovarian is 27.4 µM; with KM12 colon, above 100 µM; with MDA-MB-435 it was 10.5 µM; with OVCAR-8 ovarian, above 100 µM.
`CCOC(=O)C1=CN(C(=O)c2ccccc2)CCC1Cc1ccccc1` (stereo not given): the TGI in the experiment with SK-MEL-28 melanoma was found to be 63.3 µM; with COLO 205 colon it was 51.9 µM; in the experiment on MDA-N, 44.4 µM; in the experiment on SNB-75 CNS, 70.3 µM; in the experiment on MDA-MB-231 breast, 64.9 µM; with HT29 colon, 35.1 µM. Besides, the TGI was above 100 µM with OVCAR-3 ovarian, above 100 µM in the experiment with KM12 colon, 51 µM with MDA-MB-435 and 88.4 µM with OVCAR-8 ovarian.
`Nc1ccc(-c2nc3cc(F)ccc3s2)cc1`: the TGI was above 100 µM in the experiment with SK-MEL-28 melanoma; above 100 µM in the experiment with COLO 205 colon; above 100 µM with MDA-N; 50.7 µM with SNB-75 CNS; 81.5 µM with MDA-MB-231 breast; above 100 µM with HT29 colon. Also, the TGI in the experiment with OVCAR-3 ovarian, in the experiment on KM12 colon, in the experiment on MDA-MB-435 and in the experiment on OVCAR-8 ovarian was above 100 µM throughout.
As to `O=C1C(CN2CCCC2)CCCC1CN1CCCC1` (stereo not given), the TGI in the experiment with SK-MEL-28 melanoma is 8.94 µM; in the experiment on COLO 205 colon it was 3.07 µM; with MDA-N it was 19.2 µM; in the experiment with SNB-75 CNS, 35.6 µM; with MDA-MB-231 breast, 31.1 µM; in the experiment on HT29 colon, 33.6 µM. Moreover, the TGI is 9.62 µM with OVCAR-3 ovarian, 39.8 µM with KM12 colon, 7.43 µM in the experiment with MDA-MB-435 and 10.5 µM in the experiment with OVCAR-8 ovarian.
For the compound `COc1cnnc2c(C)c(-c3ccccc3)nn12`, the TGI in the experiment with SK-MEL-28 melanoma, in the experiment on COLO 205 colon, with MDA-N, with SNB-75 CNS, in the experiment on MDA-MB-231 breast and in the experiment on HT29 colon was above 100 µM in each case. Moreover, the TGI in the experiment with OVCAR-3 ovarian, in the experiment with KM12 colon, in the experiment on MDA-MB-435 and with OVCAR-8 ovarian was above 100 µM in each case.
As for `Cc1nn(-c2ccccc2)c2c1N=C(C(=O)O)CC(c1ccccc1)=N2`, the TGI in the experiment with SK-MEL-28 melanoma, with COLO 205 colon, in the experiment with MDA-N, with SNB-75 CNS, in the experiment on MDA-MB-231 breast and with HT29 colon was above 10 µM throughout. For the same compound, the TGI with OVCAR-3 ovarian, in the experiment with KM12 colon, in the experiment with MDA-MB-435 and in the experiment on OVCAR-8 ovarian was above 10 µM throughout.
For the compound `CC(C)(C)OC(=O)NCCNC(=O)CN(CC(=O)O)C1CCCCC1N(CC(=O)O)CC(=O)O` (stereo not given), the TGI in the experiment on SK-MEL-28 melanoma, with COLO 205 colon, in the experiment on MDA-N, in the experiment with SNB-75 CNS, in the experiment with MDA-MB-231 breast and in the experiment on HT29 colon was above 100 µM in each case. Further, the TGI in the experiment with OVCAR-3 ovarian, with KM12 colon, in the experiment on MDA-MB-435 and in the experiment on OVCAR-8 ovarian was above 100 µM throughout.
Take `Cc1nn(C(=O)c2ccc(Cl)cc2)c2c1C(c1ccco1)SC(N)=N2` (stereo not given): the TGI in the experiment with SK-MEL-28 melanoma, in the experiment on COLO 205 colon, with MDA-N, in the experiment with SNB-75 CNS, in the experiment with MDA-MB-231 breast and in the experiment on HT29 colon was above 10 µM in each case. Also, the TGI in the experiment on OVCAR-3 ovarian, in the experiment on KM12 colon, in the experiment with MDA-MB-435 and in the experiment on OVCAR-8 ovarian was above 10 µM throughout.
With `O=C1C=C(NCCc2cc(Br)c(O)c(Br)c2)C(=O)c2[nH]cnc21`, the TGI was above 100 µM with SK-MEL-28 melanoma; above 100 µM in the experiment on COLO 205 colon; 33.6 µM in the experiment with MDA-N; 69.1 µM in the experiment on SNB-75 CNS; 67.9 µM in the experiment on MDA-MB-231 breast; 80.8 µM in the experiment with HT29 colon. For the same compound, the TGI with OVCAR-3 ovarian is above 100 µM; in the experiment on KM12 colon, above 100 µM; with MDA-MB-435, 29.3 µM; in the experiment on OVCAR-8 ovarian, above 100 µM.
As for `CCOC(=O)c1ccc(NC(NC(=O)CC)(C(F)(F)F)C(F)(F)F)cc1`, the TGI in the experiment on SK-MEL-28 melanoma, in the experiment with COLO 205 colon, in the experiment with MDA-N, in the experiment with SNB-75 CNS, in the experiment with MDA-MB-231 breast and in the experiment with HT29 colon was above 100 µM each time. The TGI in the experiment with OVCAR-3 ovarian, with KM12 colon, with MDA-MB-435 and in the experiment on OVCAR-8 ovarian was above 100 µM each time.
